Reference: article PMC6270814, “Effects of Ursolic Acid Derivatives on Caco-2 Cells and Their Alleviating Role in Streptozocin-Induced Type 2 Diabetic Rats” (Molecules, 2014)

Experiments:
[1] = test system: STZ-induced diabetic rats; experiment: Oxidative stress markers (GSH, SOD, MDA) in liver and kidney of STZ-induced diabetic rats; assay type: in vivo, rat; conditions: 4 weeks
Description: (§1) Diabetes was induced by a single intraperitoneal injection of streptozotocin (Sigma-Aldrich, St. Louis, MO, USA) at a dose of 65 mg/kg body weight. STZ was dissolved in 0.1 M cold citrate buffer, pH 4.5. Control group were injected with citrate buffer alone. After 7 days for the development of diabetes, plasma glucose levels were determined of each rat. Rats with fasting blood glucose (FBG) range of above 16.7 mmol/L were considered as DM rats and were used for further study.
(§2) According to the body weight and plasma glucose levels the rats were divided randomly into seven groups with six rats each and treated as follows: • Group I: Normal rats treated with 0.5% CMC-Na (2 mL/200 g body weight). • Group II: Diabetic rats treated with 0.5% CMC-Na. • Group III: Diabetic rats treated with 10 mg/kg of glibenclamide. • Group IV: Diabetic rats treated with 100 mg/kg of compound 1 (UA). • Group V: Diabetic rats treated with 100 mg/kg of compound 10. • Group VI: Diabetic rats treated with 100 mg/kg of compound 11. • Group VII: Diabetic rats treated with 100 mg/kg of compound 12.
(§3) The treatment was continued daily for 28 days. Blood glucose levels and body weight were measured every week to ascertain the status of diabetes. After 4 weeks of treatment, the animals were fasted for 12 h and sacrificed by cervical dislocation under mild anaesthetization, blood was collected into heparinized tubes and centrifuged at 2,000 rpm for 10 min. Livers and kidneys were removed, washed and homogenized in ice-cold normal saline. This homogenates were centrifuged at 3,000 rpm for 10 min at 4 °C, and the supernatants were collected for the estimate of antioxidant markers.
The tissue homogenates of liver and kidney were used for the estimate of antioxidant markers. Glutathione (GSH) level was measured with 5, 5'-dithiobis-(2-nitrobenzoic acid) (DTNB) as described by Sedlak and Lindsay. Superoxide dismutase (SOD) activity was assessed according to the method of Sinha. Malondialdehyde (MDA) activity was estimated with the thiobarbituric acid method.

[2] = test system: STZ-induced diabetic rats; experiment: Fasting blood glucose in STZ-induced diabetic rats, 4 weeks treatment; assay type: in vivo, rat; conditions: STZ diabetic rats
Description: Adult male albino rats of Sprague-Dawley rats (180–220 g) were obtained from the Guangdong Medical Lab Animal Center, and maintained under standard laboratory conditions in a temperature (25–30 °C) and light-controlled (12-h light/dark cycle) room with 35%–60% humidity. The animals were acclimatized for 10 days before the experiments and provided with rodent chow and water ad libitum. The investigation was conducted in accordance with the Guide for the Care and Use of Laboratory Animals and approved by the institutional Animal Ethics Committee.
as §1, §2, §3
(§4) Fasting blood glucose levels were estimated on days 0, 7, 14, 28 with the single touch glucometer (Life Scan, Johnson & Johnson Company, New Brunswick, NJ, USA). Serum insulin level was measured by use of a commercial immunoassay kit by enzyme linked immunosorbent assay (Uscn. Life Science Inc., Wuhan, China). Serum total protein, albumin, triglycerides (TG), total cholesterol (TC), high-density lipoprotein cholesterol (HDL-C), and low-density lipoprotein cholesterol (LDL-C) were measured with an automatic biochemical analyzer (Sinnowa D240, Nanjing, China).

[3] = test system: STZ-induced diabetic rats; experiment: Body weight and daily food intake of STZ-induced diabetic rats; assay type: in vivo, rat; conditions: compounds 100 mg/kg, glibenclamide 10 mg/kg, oral
Description: as §1, §2, §3

[4] = test system: STZ-induced diabetic rats; experiment: Serum biochemical parameters (insulin, total protein, albumin) in STZ-induced diabetic rats; assay type: in vivo, rat; conditions: 4 weeks, compounds 100 mg/kg, glibenclamide 10 mg/kg
Description: as §1, §2, §3, §4

Caco-2 cells = experiment: MTT cytotoxicity assay on Caco-2 cells; assay type: cell-based, Human; conditions: Homo sapiens, 24 h, mean ± SD, n = 4, read-out: Inhibition Rate %
Description: Human intestinal Caco-2 cells (ATCC, Rockville, MD, USA) were incubated at 37 °C in a humidified atmosphere of 5% CO2 in air. The cells were cultured in Dulbecco’s […] medium (DMEM) with 10% heat-inactivated fetal bovine serum, 1% non-essential amino acids, 1% L-glutamine, 1% penicillin/streptomycin (Gibco Life Technologies, Grand Island, NY, USA). The cells were sub-cultured at confluence by 0.05% trypsin-0.5 mM EDTA treatment before they were applied in the experiment.
A MTT test was conducted to determine the possible toxicity of UA and its derivatives to Caco-2 cells. Briefly, cells were seeded at a density of 1 × 10^4 cells/mL in a 96-well plate and incubated for 24 h. The next day, cells were incubated with vehicle (0.1% DMSO) and compounds at 100, 50, 25, 12.5 μmol/L for 24 h, and then 5 g/L MTT solution (20 μL) was added for 4 h. Absorbance at 570 nm was measured using a Multimodel Plate Reader (Infinite 200, Tecan, Mannedorf, Switzerland).

`C[C@H]1[C@H](C)CC[C@]2(C(=O)O)CC[C@]3(C)C(=CC[C@@H]4[C@@]5(C)CC[C@H](O)C(C)(C)[C@@H]5CC[C@]43C)[C@H]12` [Compound 1, Ursolic acid] was tested, and the “GSH level in kidney” value ([1]; kidney of STZ diabetic rats) was “great effect”, the “MDA level in the liver” value ([1]; liver of STZ diabetic rats, daily administration) was “obviously down-regulated” and the “effect on lowering fasting blood glucose levels” value ([2]; 100 mg/kg, 4 weeks) was “no significant effect”. The “Fasting Blood Glucose Level, Week 0” value ([2]; Week 0 (before treatment), compounds 100 mg/kg, glibenclamide 10 mg/kg, n = 6) was 342.00 ± 19.08 mg/dL, the “Fasting Blood Glucose Level, Week 1” value ([2]; Week 1, compounds 100 mg/kg, glibenclamide 10 mg/kg daily, n = 6) was 405.00 ± 17.46 mg/dL and the “Fasting Blood Glucose Level, Week 2” value ([2]; Week 2, compounds 100 mg/kg, glibenclamide 10 mg/kg daily, n = 6) was 392.40 ± 13.32 mg/dL. The “Fasting Blood Glucose Level, Week 3” value ([2]; Week 3, compounds 100 mg/kg, glibenclamide 10 mg/kg daily, n = 6) was 379.80 ± 19.44 mg/dL, the “Fasting Blood Glucose Level, Week 4” value ([2]; Week 4, compounds 100 mg/kg, glibenclamide 10 mg/kg daily, n = 6) was 396.00 ± 16.92 mg/dL and the “daily food intake vs untreated diabetic rats” value [3] was “no obvious decrease”. For the same compound, the “serum albumin level vs diabetic control” value [4] was “no appreciable improvement”, the “serum insulin level vs diabetic control” value [4] was “non-significant effect” and the “serum total protein level vs diabetic control” value [4] was “no appreciable improvement”. For the same compound, the inhibition at 100 µM (Caco-2 cells) was 9.88 ± 6.51%.

`CC(=O)O[C@H]1CC[C@@]2(C)C(CC[C@]3(C)C2CC=C2C4[C@@H](C)[C@H](C)CC[C@]4(C(=O)Nc4ccccc4)CC[C@]23C)C1(C)C` (stereo partly drawn) [Compound 2] showed an inhibition at 100 µM (Caco-2 cells) of 5.02 ± 2.38%.

Compound `CC(=O)O[C@H]1CC[C@@]2(C)C(CC[C@]3(C)C2CC=C2C4[C@@H](C)[C@H](C)CC[C@]4(C(=O)Nc4ccc(F)cc4)CC[C@]23C)C1(C)C` (stereo partly drawn) [Compound 3] has an inhibition at 100 µM (Caco-2 cells) of 8.65 ± 3.49%.

Work on `CC(=O)O[C@H]1CC[C@@]2(C)C(CC[C@]3(C)C2CC=C2C4[C@@H](C)[C@H](C)CC[C@]4(C(=O)Nc4ccc(Cl)cc4)CC[C@]23C)C1(C)C` (stereo partly drawn) [Compound 4] yielded an inhibition at 100 µM (Caco-2 cells) of 8.53 ± 5.69%.

In the case of `CC(=O)O[C@H]1CC[C@@]2(C)C(CC[C@]3(C)C2CC=C2C4[C@@H](C)[C@H](C)CC[C@]4(C(=O)Nc4ccc(Br)cc4)CC[C@]23C)C1(C)C` (stereo partly drawn) [Compound 5], the inhibition at 100 µM (Caco-2 cells) is reported as 8.72 ± 1.18%.

Work on `CC(=O)O[C@H]1CC[C@@]2(C)C(CC[C@]3(C)C2CC=C2C4[C@@H](C)[C@H](C)CC[C@]4(C(=O)Nc4ccccc4Cl)CC[C@]23C)C1(C)C` (stereo partly drawn) [Compound 7] yielded an inhibition at 100 µM (Caco-2 cells) of 8.14 ± 3.81%.
